Laboratory results from article PMC3418602 (2009).

Assays:
Assay in all cases: TR-FRET peptide phosphorylation kinase assay
Assay type in all cases: biochemical
JAK3 = JAK3 (Homo sapiens, UniProt P52333)
JAK2 = JAK2 (Homo sapiens, UniProt O60674)
JAK1 = JAK1 (Homo sapiens, UniProt P23458)
JAK1, sequence (P23458 850-1154 limits assumed): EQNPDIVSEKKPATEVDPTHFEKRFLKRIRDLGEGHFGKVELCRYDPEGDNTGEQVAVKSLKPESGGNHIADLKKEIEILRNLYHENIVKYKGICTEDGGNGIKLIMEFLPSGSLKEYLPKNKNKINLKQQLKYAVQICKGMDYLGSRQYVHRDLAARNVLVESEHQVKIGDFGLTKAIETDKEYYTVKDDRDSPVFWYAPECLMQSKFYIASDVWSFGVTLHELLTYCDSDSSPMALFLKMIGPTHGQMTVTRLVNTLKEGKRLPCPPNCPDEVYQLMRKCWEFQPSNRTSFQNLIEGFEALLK

JAK2, sequence (O60674 840-1132 limits assumed): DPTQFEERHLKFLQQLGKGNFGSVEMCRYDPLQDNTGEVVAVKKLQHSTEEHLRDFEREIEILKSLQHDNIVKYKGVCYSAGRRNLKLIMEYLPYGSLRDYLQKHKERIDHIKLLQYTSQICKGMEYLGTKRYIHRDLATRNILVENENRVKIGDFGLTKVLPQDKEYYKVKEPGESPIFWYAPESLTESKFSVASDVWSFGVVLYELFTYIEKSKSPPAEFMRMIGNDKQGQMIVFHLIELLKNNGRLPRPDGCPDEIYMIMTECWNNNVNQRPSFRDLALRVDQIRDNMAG
JAK3, sequence (P52333 781-1124 limits assumed): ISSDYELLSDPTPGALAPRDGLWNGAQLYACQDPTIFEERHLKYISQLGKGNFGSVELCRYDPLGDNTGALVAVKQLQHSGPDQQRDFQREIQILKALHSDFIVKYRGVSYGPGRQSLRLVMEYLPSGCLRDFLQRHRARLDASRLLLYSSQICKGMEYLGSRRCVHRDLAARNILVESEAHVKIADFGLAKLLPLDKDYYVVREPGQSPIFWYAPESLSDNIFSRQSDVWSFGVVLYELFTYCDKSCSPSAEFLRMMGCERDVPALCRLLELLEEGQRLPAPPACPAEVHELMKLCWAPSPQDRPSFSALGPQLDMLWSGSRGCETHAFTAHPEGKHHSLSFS

- IC50 (JAK3): 15.4 µM
- IC50 (JAK2): 11.2 µM
- IC50 (JAK1): 10.2 µM
SMILES: N#C/C(=C\c1ccc(O)c(O)c1)C(=O)NCc1ccccc1 [AG490]
